{
  "source": "ChEMBL document CHEMBL1201862",
  "about": "“PubChem BioAssay data set” (2004)",
  "key": {"[1]": {"molecular_target": "Estrogen receptor beta (Homo sapiens, UniProt Q92731)", "sequence (Q92731 whole entry)": "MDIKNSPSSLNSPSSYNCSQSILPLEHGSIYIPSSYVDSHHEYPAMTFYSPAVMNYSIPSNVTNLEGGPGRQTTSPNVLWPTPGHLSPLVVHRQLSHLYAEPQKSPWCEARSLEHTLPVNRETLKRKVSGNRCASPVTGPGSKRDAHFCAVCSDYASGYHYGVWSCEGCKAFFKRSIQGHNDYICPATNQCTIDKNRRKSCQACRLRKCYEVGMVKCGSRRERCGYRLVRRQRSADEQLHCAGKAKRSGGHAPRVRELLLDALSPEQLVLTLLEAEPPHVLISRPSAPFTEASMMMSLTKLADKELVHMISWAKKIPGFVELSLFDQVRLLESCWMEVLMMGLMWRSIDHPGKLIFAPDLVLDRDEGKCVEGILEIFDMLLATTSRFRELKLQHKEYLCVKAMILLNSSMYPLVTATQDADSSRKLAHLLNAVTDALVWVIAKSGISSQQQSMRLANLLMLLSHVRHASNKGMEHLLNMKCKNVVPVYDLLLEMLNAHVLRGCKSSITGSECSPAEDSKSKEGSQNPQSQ"}, "[2]": {"molecular_target": "Beta Lactamase (Pseudomonas aeruginosa, UniProt Q932Y6)", "sequence (Q932Y6 whole entry)": "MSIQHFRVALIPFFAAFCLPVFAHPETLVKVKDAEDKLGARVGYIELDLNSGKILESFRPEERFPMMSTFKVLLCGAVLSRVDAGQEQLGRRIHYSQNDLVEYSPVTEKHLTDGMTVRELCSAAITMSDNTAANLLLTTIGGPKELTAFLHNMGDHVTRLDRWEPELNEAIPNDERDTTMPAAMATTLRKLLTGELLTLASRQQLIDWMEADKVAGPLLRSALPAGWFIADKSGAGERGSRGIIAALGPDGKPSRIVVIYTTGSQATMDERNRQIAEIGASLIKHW", "assay": "BLA reporter interference, concentration series – BLA reporter cells, FRET fluorescence, artefact control for TLR9-MyD88 binding inhibitor project, dose response (AID 588341);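 further: cell based assay in CHO-K1 cells stably expressing beta-lactamase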", "assay_type": "cell-based"}, "[3]": {"assay": "reduction of Shn3 3'UTR-driven luciferase in osteoblasts – cell-based, Clone20 osteoblasts, firefly luciferase, cherry-picked, dose response (AID 624132)", "assay_type": "functional"}, "[4]": {"assay": "loss of viability in HepG2 cells – cell-based, CellTiter-Glo, cherry-picked, cytotoxicity control for Shn3 inhibitor project, dose response (AID 624134)", "assay_type": "functional"}, "[5]": {"assay": "non-specific 3'UTR reporter inhibition in Clone20-Shn3RL – cell-based, Renilla luciferase, cherry-picked, counter-screen for Shn3 inhibitor project, dose response (AID 624133)", "assay_type": "functional"}, "[6]": {"molecular_target": "T1, Rac GTPase-activating protein 1 (Homo sapiens, UniProt Q9H0H5)", "T1 sequence (Q9H0H5 whole entry)": "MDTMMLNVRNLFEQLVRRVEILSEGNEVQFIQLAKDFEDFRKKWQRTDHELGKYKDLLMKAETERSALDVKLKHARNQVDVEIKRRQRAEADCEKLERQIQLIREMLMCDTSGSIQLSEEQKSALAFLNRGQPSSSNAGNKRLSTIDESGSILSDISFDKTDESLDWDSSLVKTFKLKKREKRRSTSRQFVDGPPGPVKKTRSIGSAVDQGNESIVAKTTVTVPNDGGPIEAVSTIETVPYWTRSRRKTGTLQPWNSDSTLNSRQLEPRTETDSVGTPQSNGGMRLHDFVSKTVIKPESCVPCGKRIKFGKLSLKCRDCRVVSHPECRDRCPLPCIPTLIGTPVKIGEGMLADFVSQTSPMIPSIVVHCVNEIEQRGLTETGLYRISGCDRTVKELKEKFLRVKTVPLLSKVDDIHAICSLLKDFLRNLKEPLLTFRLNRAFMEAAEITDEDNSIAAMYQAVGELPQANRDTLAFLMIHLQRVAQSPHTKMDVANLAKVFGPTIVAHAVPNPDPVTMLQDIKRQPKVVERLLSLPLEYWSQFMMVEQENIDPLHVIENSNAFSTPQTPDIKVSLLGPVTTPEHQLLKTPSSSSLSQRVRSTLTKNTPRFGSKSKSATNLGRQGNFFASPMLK", "assay": "blockers of MgcRacGAP-driven Rac1 GTP hydrolysis – biochemical, ADP Hunter fluorescence, primary and confirmatory, confirmation (AID 624330)", "assay_type": "functional"}, "[7]": {"molecular_target": "Glucose-6-phosphate 1-dehydrogenase (Homo sapiens, UniProt P11413)", "sequence (P11413 whole entry)": "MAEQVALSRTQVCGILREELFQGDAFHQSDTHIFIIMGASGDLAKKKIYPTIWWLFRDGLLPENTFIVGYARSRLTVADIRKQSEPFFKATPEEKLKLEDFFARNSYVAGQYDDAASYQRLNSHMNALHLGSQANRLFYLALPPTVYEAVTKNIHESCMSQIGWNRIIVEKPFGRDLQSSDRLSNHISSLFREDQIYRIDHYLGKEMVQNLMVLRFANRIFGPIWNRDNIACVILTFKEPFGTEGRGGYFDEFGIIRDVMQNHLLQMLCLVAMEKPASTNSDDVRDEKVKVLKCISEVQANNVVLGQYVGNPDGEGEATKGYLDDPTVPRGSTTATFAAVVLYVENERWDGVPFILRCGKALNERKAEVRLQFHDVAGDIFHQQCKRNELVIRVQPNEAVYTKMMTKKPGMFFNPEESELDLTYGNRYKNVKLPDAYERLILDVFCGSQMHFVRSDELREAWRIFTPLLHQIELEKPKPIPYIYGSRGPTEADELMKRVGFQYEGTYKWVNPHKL", "assay": "inhibition of Homo sapiens G6PD, dose series – biochemical, fluorescence, selectivity assay for P. falciparum G6PD inhibitor project, dose response (AID 504792)", "assay_type": "functional"}, "[8]": {"system": "CHO", "assay": "CHO cell viability loss, potency – luminescence, cytotoxicity control for TLR9-MyD88 binding inhibitor project, dose response (AID 588339);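 further: CHO cells stably coexpressing TLR9 and MyD88 fusions from primary screen; compound exposure lasted 48 hours before viability readout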", "assay_type": "functional, cell-based, hamster", "conditions": "Cricetulus griseus"}, "[9]": {"assay": "HIV-1 Vif–A3G interaction blockers – biochemical, TR-FRET, GST-Vif 1-94, biotin-A3G peptide, dose response retest, primary screen (AID 1117319);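 further: inhibitors lower the FRET signal by blocking Vif and A3G binding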", "assay_type": "functional"}, "[10]": {"molecular_target": "Eukaryotic translation initiation factor 4E (Mus musculus, UniProt P63073)", "sequence (P63073 whole entry)": "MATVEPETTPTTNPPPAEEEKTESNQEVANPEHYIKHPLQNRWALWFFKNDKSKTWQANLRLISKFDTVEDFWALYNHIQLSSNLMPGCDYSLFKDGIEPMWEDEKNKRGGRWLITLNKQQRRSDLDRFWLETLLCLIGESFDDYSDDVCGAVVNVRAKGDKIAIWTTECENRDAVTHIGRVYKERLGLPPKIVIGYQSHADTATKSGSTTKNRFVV", "assay": "blockers of eIF4G binding by eIF4E – biochemical, TR-FRET, dose response (AID 855);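 further: potency for disrupting eIF4E binding to eIF4GI seen as loss of FRET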", "assay_type": "functional"}, "[11]": {"molecular_target": "E3 ubiquitin-protein ligase Mdm2 (Homo sapiens, UniProt Q00987)", "sequence (Q00987 whole entry)": "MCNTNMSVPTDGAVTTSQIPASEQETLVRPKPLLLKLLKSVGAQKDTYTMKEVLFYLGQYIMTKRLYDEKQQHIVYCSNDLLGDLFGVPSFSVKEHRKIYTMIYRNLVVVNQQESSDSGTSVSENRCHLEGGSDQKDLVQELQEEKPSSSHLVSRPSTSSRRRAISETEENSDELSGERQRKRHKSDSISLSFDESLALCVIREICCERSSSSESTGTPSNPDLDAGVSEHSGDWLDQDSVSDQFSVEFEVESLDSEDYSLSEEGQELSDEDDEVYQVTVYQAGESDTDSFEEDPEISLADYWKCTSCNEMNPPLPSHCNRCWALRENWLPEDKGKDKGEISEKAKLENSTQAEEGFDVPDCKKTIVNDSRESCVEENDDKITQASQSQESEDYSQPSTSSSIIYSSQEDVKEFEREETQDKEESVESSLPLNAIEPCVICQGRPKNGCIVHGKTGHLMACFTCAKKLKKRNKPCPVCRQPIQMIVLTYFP", "assay": "MDM2-luc reporter signal enhancers, multi-concentration potency testing, MDM2 ubiquitin-protein ligase inhibitor program, whole-cell format, luminescence detection, 384-well microplate (AID 1394);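 further: MDM2 E3 inhibitors raise luminescence so EC50 is for signal enhancement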", "assay_type": "functional"}, "[12]": {"molecular_target": "Melanocortin receptor 4 (Homo sapiens, UniProt P32245)", "sequence (P32245 whole entry)": "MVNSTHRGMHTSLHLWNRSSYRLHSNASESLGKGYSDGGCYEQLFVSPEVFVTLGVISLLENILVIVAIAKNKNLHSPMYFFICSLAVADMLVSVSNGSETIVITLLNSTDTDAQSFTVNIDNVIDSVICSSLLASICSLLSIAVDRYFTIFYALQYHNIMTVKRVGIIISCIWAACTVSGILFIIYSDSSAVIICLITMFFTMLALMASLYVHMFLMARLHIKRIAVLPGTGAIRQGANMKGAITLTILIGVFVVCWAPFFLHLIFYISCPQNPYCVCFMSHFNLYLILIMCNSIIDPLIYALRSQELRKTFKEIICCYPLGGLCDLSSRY", "assay_type": "functional, cell-based"}, "[13]": {"assay": "cells"}, "[14]": {"molecular_target": "Oxysterols receptor LXR-beta (Homo sapiens, UniProt P55055)", "sequence (P55055 whole entry)": "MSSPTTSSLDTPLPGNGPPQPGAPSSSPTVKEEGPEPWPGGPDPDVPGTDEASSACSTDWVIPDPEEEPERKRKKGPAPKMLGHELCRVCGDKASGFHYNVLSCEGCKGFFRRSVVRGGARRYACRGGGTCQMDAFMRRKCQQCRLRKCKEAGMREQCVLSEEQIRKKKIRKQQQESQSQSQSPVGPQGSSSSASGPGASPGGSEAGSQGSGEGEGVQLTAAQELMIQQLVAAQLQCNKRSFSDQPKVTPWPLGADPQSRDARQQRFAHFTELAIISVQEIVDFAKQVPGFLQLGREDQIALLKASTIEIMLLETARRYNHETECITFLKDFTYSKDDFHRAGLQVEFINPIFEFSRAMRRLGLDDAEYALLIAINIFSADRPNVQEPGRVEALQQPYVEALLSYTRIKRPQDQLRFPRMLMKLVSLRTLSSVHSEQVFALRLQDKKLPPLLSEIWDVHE", "assay_type": "functional, cell-based"}, "[15]": {"assay": "reduced cellular PGC1a acetyl-lysine signal – cell-based, cherry-picked samples, dose response (AID 720514);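 further: potency may reflect raised or lowered acetylation signal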", "assay_type": "functional"}, "[16]": {"molecular_target": "T2, CAAX prenyl protease 2 (Saccharomyces cerevisiae S288c, UniProt Q03530)", "T2 sequence (Q03530 whole entry)": "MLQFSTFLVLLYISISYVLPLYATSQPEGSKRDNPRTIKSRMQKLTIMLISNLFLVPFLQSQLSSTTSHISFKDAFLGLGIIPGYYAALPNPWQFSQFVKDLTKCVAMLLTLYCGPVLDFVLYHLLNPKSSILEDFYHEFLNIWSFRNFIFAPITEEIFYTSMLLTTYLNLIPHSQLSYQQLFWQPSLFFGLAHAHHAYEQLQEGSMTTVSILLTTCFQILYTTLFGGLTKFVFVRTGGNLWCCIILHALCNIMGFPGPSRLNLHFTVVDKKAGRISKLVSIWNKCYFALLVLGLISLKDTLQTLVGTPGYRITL", "assay_type": "biochemical"}, "[17]": {"assay": "viability loss in THP-1 monocytes – THP-1 cells, cytotoxicity control for Vif-APOBEC3G degradation inhibitor project, dose response (AID 1117359)", "assay_type": "functional", "conditions": "THP-1"}, "[18]": {"assay": "cells", "assay_type": "functional, cell-based", "conditions": "INS-1E"}, "[19]": {"assay": "rise of 2N DNA cells, HeLa – IC50, dose response (AID 1117349)", "assay_type": "functional, cell-based"}, "[20]": {"assay": "IC50 of insulin release inhibition, rat insulinoma INS-1E line, 5 mM glucose, cell-based (AID 1117331)", "assay_type": "functional"}, "[21]": {"assay": "rise of 4N DNA cells, HeLa – IC50, dose response (AID 1117351)", "assay_type": "functional, cell-based"}},
  "note": "Active and inactive are the calls of the source.",
  "data": [
    {"smiles": "C[C@]12CCC(=O)C=C1CCC1C2CC[C@@]2(C)C1CC[C@@]2(O)CC#N", "note": "(stereo partly specified)", "values": [
      {"measurement": "IC50", "setting": "[1]", "result": "> 50 µM (not active)"}
    ]},
    {"smiles": "COc1cc(N2C(=O)C=CC2=O)ccc1N1C(=O)C=CC1=O", "values": [
      {"measurement": "IC50", "setting": "[2]", "result": "11 µM (inactive)"},
      {"measurement": "AC50", "setting": "[3]", "result": "2.32 µM (active)"},
      {"measurement": "AC50", "setting": "[4]", "result": "15.8 µM (active)"},
      {"measurement": "AC50", "setting": "[5]", "result": "12.5 µM (active)"},
      {"measurement": "IC50", "setting": "[6]", "result": "53.8 µM (active)"},
      {"measurement": "IC50", "setting": "[7]", "result": "57.4 µM (inactive)"},
      {"measurement": "IC50", "setting": "[8]", "result": "1.59 µM (active)"},
      {"measurement": "IC50", "setting": "[9]", "result": "> 100 µM (active)"}
    ]},
    {"smiles": "CCn1c(SCC(=O)NCc2ccc3c(c2)OCO3)nnc1-c1cccs1", "values": [
      {"measurement": "IC50", "setting": "[10]", "result": "> 64 µM (inactive)"},
      {"measurement": "IC50", "setting": "[9]", "result": "> 100 µM (active)"}
    ]},
    {"smiles": "Clc1ccccc1/C=N/NC1=Nc2cccc3cccc1c23", "values": [
      {"measurement": "EC50", "setting": "[11]", "result": "10.6 µM (not active)"},
      {"measurement": "EC50", "setting": "[12]", "result": "> 89.3 µM (inactive)"},
      {"measurement": "EC50", "setting": "[13]", "result": "> 67.6 µM (inactive)"},
      {"measurement": "EC50", "setting": "[14]", "result": "> 67.6 µM (inactive)"}
    ]},
    {"smiles": "COc1ccc(-c2ccc([C@@H]3[C@@H]4CN(Cc5ccccn5)C[C@H]3N4)cc2)cc1", "values": [
      {"measurement": "AC50", "setting": "[15]", "result": "28.7 µM (active)"}
    ]},
    {"smiles": "COC(=O)C1CCCN1S(=O)(=O)c1ccc2ccccc2c1", "note": "(stereo unspecified)", "values": [
      {"measurement": "AC50", "setting": "[16]", "result": "8.28 µM (active)"},
      {"measurement": "CC50", "setting": "[17]", "result": "> 40 µM (active)"}
    ]},
    {"smiles": "CSc1ccc2c(c1)C(N1CCN(C)CC1)Cc1ccccc1S2", "note": "(stereo unspecified) [METITEPINE]", "values": [
      {"measurement": "IC50", "setting": "[18]", "result": "> 33.3 µM (inactive)"},
      {"measurement": "IC50", "setting": "[19]", "result": "> 10 µM (inactive)"},
      {"measurement": "IC50", "setting": "[20]", "result": "2.94 µM (active)"},
      {"measurement": "IC50", "setting": "[21]", "result": "> 10 µM (inactive)"}
    ]},
    {"smiles": "CCCNCC(O)COc1ccccc1C(=O)CCc1ccccc1", "note": "(stereo unspecified) [PROPAFENONE]", "values": [
      {"measurement": "IC50", "setting": "[18]", "result": "> 33.3 µM (inactive)"},
      {"measurement": "IC50", "setting": "[19]", "result": "> 10 µM (inactive)"},
      {"measurement": "IC50", "setting": "[20]", "result": "4.92 µM (active)"},
      {"measurement": "IC50", "setting": "[21]", "result": "> 10 µM (inactive)"}
    ]}
  ]
}
